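Method: 48-hour compound exposure of cells in 96-well plates, five concentrations, linear interpolation of endpoints. GI50: concentration for 50% inhibition of growth. TGI marks complete inhibition of growth.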
Columns and labels:
Assay in all cases: growth of human tumour cells (NCI), 48 h
CCRF-CEM leukemia = system: CCRF-CEM leukemia
HCC-2998 colon = system: HCC-2998 colon
HOP-92 NSCLC = system: HOP-92 NSCLC
LOX IMVI melanoma = system: LOX IMVI melanoma
MOLT-4 leukemia = system: MOLT-4 leukemia
NCI-H460 lung = system: NCI-H460 lung
RPMI-8226 leukemia = system: RPMI-8226 leukemia
SF-268 CNS = system: SF-268 CNS
SK-MEL-28 melanoma = system: SK-MEL-28 melanoma
SK-OV-3 ovarian = system: SK-OV-3 ovarian

| Compound | TGI (CCRF-CEM leukemia) [µM] | TGI (HCC-2998 colon) [µM] | TGI (HOP-92 NSCLC) [µM] | TGI (LOX IMVI melanoma) [µM] | TGI (MOLT-4 leukemia) [µM] | TGI (NCI-H460 lung) [µM] | TGI (RPMI-8226 leukemia) [µM] | TGI (SF-268 CNS) [µM] | TGI (SK-MEL-28 melanoma) [µM] | TGI (SK-OV-3 ovarian) [µM] | GI50 (CCRF-CEM leukemia) [µM] | GI50 (HCC-2998 colon) [µM] | GI50 (HOP-92 NSCLC) [µM] | GI50 (LOX IMVI melanoma) [µM] | GI50 (MOLT-4 leukemia) [µM] | GI50 (NCI-H460 lung) [µM] | GI50 (RPMI-8226 leukemia) [µM] | GI50 (SF-268 CNS) [µM] | GI50 (SK-MEL-28 melanoma) [µM] | GI50 (SK-OV-3 ovarian) [µM] |
| --- | --- | --- | --- | --- | --- | --- | --- | --- | --- | --- | --- | --- | --- | --- | --- | --- | --- | --- | --- | --- |
| O=[N+]([O-])c1ccc(N/N=C/c2ccc(OCCCCCCCCCCCO)cc2)c([N+](=O)[O-])c1 | > 44.5 | 76.6 | 14.6 | 59.7 | > 100 | 12.1 | > 100 | 7.62 | 32.5 | 11.6 | – | – | – | – | – | – | – | – | – | – |
| O=C1c2ccc(O)c(O)c2C(=O)c2c(O)ccc(O)c21 | 56.7 | 47.9 | 57.7 | 44.3 | 62.2 | 49.8 | > 100 | > 100 | > 100 | 72.8 | – | – | – | – | – | – | – | – | – | – |
| O=C1CSC(c2cccc([N+](=O)[O-])c2)N1c1ccc(-n2c(-c3ccccc3)nc3ccccc3c2=O)cc1 (stereo not given) | > 100 | > 100 | > 100 | > 100 | > 100 | > 100 | > 100 | > 100 | > 100 | > 100 | – | – | – | – | – | – | – | – | – | – |
| Cc1cc(=O)oc2c(CNC(Cc3ccccc3)C(=O)O)c(O)ccc12 (stereo not given) | > 100 | > 100 | > 100 | > 100 | > 100 | > 100 | > 100 | > 100 | > 100 | > 100 | – | – | – | – | – | – | – | – | – | – |
| COc1cc2c(cc1OCCCC(=O)Nc1ccc3ccc4cccc5ccc1c3c45)N=C[C@@H]1CCCN1C2=O | 0.936 | < 0.0157 | 1.07 | > 100 | 0.355 | 0.31 | 0.238 | 0.864 | < 0.01 | 46.9 | 0.0335 | < 0.01 | 0.147 | 0.0143 | 0.0987 | < 0.0484 | 0.042 | 0.27 | < 0.01 | 10.3 |
| CC1=C(C(=O)Nc2ccccc2)C2(CCCCC2)C(C#N)=C(SCC(=O)Nc2ccc(Br)cc2)N1 | 7.02 | 10.4 | 8.44 | 9.96 | 9 | 11.4 | 7.11 | 8.74 | > 26.5 | 44.5 | – | – | – | – | – | – | – | – | – | – |
| COC(=O)C1(C)C=CC(=O)C2(C)C1C(O)C1OC3CC(c4ccoc4)C(C)=C3C1(C)C2CC(=O)O (stereo not given) | > 100 | > 100 | > 100 | > 100 | > 100 | > 100 | > 100 | > 100 | > 100 | > 100 | – | – | – | – | – | – | – | – | – | – |
| Cn1c(-c2cccc([N+](=O)[O-])c2)[n+](C)c2ccccc21 | > 100 | > 100 | > 100 | > 100 | > 100 | > 100 | > 100 | > 100 | > 100 | > 100 | – | – | – | – | – | – | – | – | – | – |
| CCOC(=O)C(SCCO)C(C(=O)OCC)n1ccc(=O)[nH]c1=O (stereo not given) | 10.5 | > 100 | 69.1 | > 43.8 | 21.7 | > 100 | 47.8 | > 100 | > 86.7 | > 100 | – | – | – | – | – | – | – | – | – | – |

Reference: PubChem BioAssay (NCI)
